Data on 3 compounds can be found in PMC13091788 (NPJ Aging, 2026).

One series is described as follows: PAMPA assay. The conditions noted are these: 37 °C, 4 h. The format is in vitro ADME. Here is the method:
To determine the passive membrane diffusion rates, Corning Gentest Pre-coated PAMPA Plate System was used. The acceptor plate was prepared by adding 200 μL of 0.1 M phosphate buffer (pH 4.5–8.6) supplemented with 5% DMSO to each well, and then 300 μL of 30 μM compounds in 0.1 M phosphate buffer (pH 4.5–8.6) with 5% DMSO were added to the donor wells. The acceptor plate was then placed on top of the donor plate and incubated at 37 °C for 4 h without agitation. After the incubation, the plates were separated and the solutions from each well of both the acceptor plate and the donor plate were transferred to 96-well plates and mixed with acetonitrile. The final concentrations of compounds in both donor and acceptor wells, as well as the concentrations of the initial donor solutions, were analyzed using liquid chromatography-tandem mass spectrometry (LC-MS/MS). The permeability of the compounds was calculated as described in a previous study. […] Two technical replicates were performed.

Details of series [1]: method as in PMID 24593257. The conditions noted are these: cited from earlier work.
The next series has as its system 86-week-old aged mice. The experiment in a line: Survival analysis in aged mice on normal diet. Format: in vivo, mouse. The conditions noted are these: 0.5 mg/mL in drinking water, from 86 weeks of age. The source says: All experimental procedures were approved by the Ethics Review Committee for Animal Experimentation at Kumamoto University, Kumamoto, Japan (approval No. A 2024-083). Procedures followed the guidelines and recommendations outlined by the ILAR Guide for the Care and Use of Laboratory Animals (8th Edition, 2011). Prior to tissue collection, mice were euthanized under isoflurane anesthesia, followed by cervical dislocation to ensure rapid euthanasia, a procedure also employed during sacrifice for tissue harvesting. Euthanasia was performed when animals met the established criteria for humane endpoints, specifically a body weight loss exceeding 20% over a 3-day period or 25% over a 1-week period, in accordance with the Kumamoto University Ethics Review Committee for Animal Experimentation above. All animals fed a normal diet (CE-2, CLEA) were randomly assigned to two groups: tap water only and tap water supplemented with AcA-BRB (0.5 mg/mL). Mice were housed in an animal facility with lighting cycles automatically controlled (12 h light/12 h dark), maintained at a stable temperature of 22 ± 2 °C and a relative humidity of 40–80%. C57BL/6NJcl wild-type (WT) male mice aged 2, 20, and 24 months were used in this study.

Series [2] relates to high-fat diet (HFD32)-fed mice. In words: Survival analysis in high-fat diet-fed mice. The format is in vivo, mouse. The conditions noted are these: 0.5 mg/mL in drinking water from 60 weeks old, HFD32 from 8 weeks of age. The method, then:
For survival analysis under metabolic stress conditions, two-month-old C57BL/6NJcl male mice fed a high-fat diet (HFD 32: water 6.2%, protein 25.5%, fat 32.0%, ash 4.0%, carbohydrate 29.4%, fiber 2.9%, providing 507.6 kcal/100 g; CLEA) were randomly assigned to two groups: tap water only and tap water supplemented with AcA-BRB (0.5 mg/mL).

The next series has as its system C2C12 cells. In words: Mitochondrial ROS (4-HNE in isolated mitochondrial fractions). Format: cell-based, mouse. The conditions noted are these: C2C12, Q-BRB or AcA-BRB 5 or 10 μM, 24 h. The source says:
Proteins in sample buffer were separated by SDS-PAGE and transferred to Immobilon-P PVDF membranes (IPVH00010, Millipore). Blots were probed with the indicated antibodies, and protein bands on the blot were visualized using Chemi-Lumi One L (07880-70, Nacalai Tesque) or Immobilon Western Chemiluminescent HRP Substrate (WBKLS0500, Millipore). Band images were captured using a LuminoGraph I imager (WSE-6100, ATTO). Relative band intensities were quantified using Fiji/ImageJ software. Unprocessed western blot images corresponding to the data presented in the main and supplementary figures are provided in Supplementary Figures 11–16. Mitochondria were isolated using differential centrifugation. Cells were washed twice with ice-cold PBS, harvested by scraping, and collected by centrifugation at 500 × g for 5 min at 4 °C. The resulting cell pellets were resuspended in ice-cold mitochondrial isolation buffer (250 mM sucrose, 10 mM HEPES-KOH pH 7.4, 1 mM EDTA, and protease inhibitor cocktail) and incubated on ice for 10 min. Cells were mechanically disrupted on ice using a 27 G needle. The homogenates were centrifuged at 800 × g for 10 min at 4 °C to remove nuclei and cellular debris. The supernatants were transferred to new tubes and centrifuged at 8000 × g for 10 min at 4 °C to obtain the mitochondrial fraction. […] Protein concentration was measured using the BCA Protein Assay Kit (Takara Bio).

[3] abbreviates: donor/acceptor pH 6.4/7.4, 30 μM, read-out: Membrane permeability pH6.4/7.4.
Where [4] appears, read: donor/acceptor pH 7.4/7.4, 30 μM, read-out: Membrane permeability pH7.4/7.4.

Where two headings read alike, the source gives them in different places.

For `COc1ccc2cc3[n+](cc2c1O)CCc1cc2c(cc1-3)OCO2` [AcA-BRB, berberrubine acetic acid adduct], the Papp at 4 h, 30 μM in “PAMPA assay” (donor/acceptor pH 4.5/4.5, 30 μM, read-out: Membrane permeability pH4.5/4.5) was 0.22 ×10⁻⁶ cm/s; in “PAMPA assay” (setting [3]), 1.87 ×10⁻⁶ cm/s; in “PAMPA assay” (setting [4]), 1.8 ×10⁻⁶ cm/s.

For `COc1ccc2cc3n(cc-2c1=O)CCc1cc2c(cc1-3)OCO2` [Q-BRB, quinoid-type berberrubine], the “water solubility (literature)” value in series [1] is “water-insoluble”. The Papp at 4 h, 30 μM was found to be 1.63 ×10⁻⁶ cm/s in the series “PAMPA assay” (setting [3]); 2.9 ×10⁻⁶ cm/s in the series “PAMPA assay” (setting [4]); 2.6 ×10⁻⁶ cm/s in the series “PAMPA assay” (donor/acceptor pH 8.6/8.6, 30 μM, read-out: Membrane permeability pH8.6/8.6).

As to `COc1ccc2cc3[n+](cc2c1O)CCc1cc2c(cc1-3)OCO2` [berberrubine], the survival rate entry in the series on 86-week-old aged mice is given as “did not significantly affect”. Moreover, the “lifespan compared with control mice” value in series [2] is recorded as “significantly prolonged”. Moreover, the “mitochondrial ROS (4-HNE levels in isolated mitochondrial fractions)” value with C2C12 cells is “modest increase”.
